Measured values reported in publication PMC6838142, “Nano-Antagonist Alleviates Inflammation and Allows for MRI of Atherosclerosis” (Nanotheranostics, 2019).

What was measured:
RAW cells = assay: Fluorescence microscopy of binding and uptake in RAW cells; type: cell-based, mouse
From the text: Figure 1 Screening identifies CCTV as an anti-inflammatory nanoparticle with high affinity for CC chemokine receptor 2. A) A screening of a small library of nanoparticles in lipopolysaccharide (LPS)-stimulated macrophage reporter cells (RAW-Blue) identified CCTV, which downregulates nuclear factor-kappa B (NF-κB) activity. Each point on the plot represents a relative activity of NF-κB (X-coordinate) and corresponding nanoparticle content per mg of cell protein (Y-coordinate) calculated from nanoparticle fluorescence. […] Dexamethasone (Dex) is an NF-κB inhibitor and was used as a positive control. Vehicle-treated and unstained (US) cells served as a negative control. B) CCTV binding to the cell surface was validated in RAW cells using fluorescence microscopy. The cells were stained at 4 °C or room temperature for 30 min with CCTV or vehicle nanoparticles (sudo-colored green). Lysosomes were visualized after staining with LAMP1 antibody (red). Nuclei were stained using Hoechst 33342 (blue). C) The uptake of CCTV was inhibited in the presence of 5 µM cytochalasin D (cyto D). DMSO served as vehicle control. Calcein AM was used for whole cell staining. D) CCTV binding to a receptor on the cell surface was studied by flow cytometry in the presence and absence of the excess (1 mM) of the free peptide. E) The Basic Local Alignment Search Tool (BLAST) analysis determined that CCTV peptide sequence repeats in mouse and human CC chemokine receptor family. Only the first 50 amino acids are shown. F) Chemical structure of CCTV and its mirror analog VTCC and their possible conjugation strategies that include N- (N-term.) and C-terminus (C-term.) as well as sulfhydryl attachment. […]
For a targeted nanotherapy to be effective, the nanoparticles must have affinity to a specific cell type, usually determined by cell surface binding. […] Thus, we used the mouse macrophage reporter cell line RAW-Blue that allowed for monitoring activity of Nuclear Factor-kappa B (NF-kB) and also enabled In vitro quantitation of nanoparticle binding to the cell surface. […]

BMDMs = assay: CCL2-induced actin polymerization in BMDMs; type: cell-based; conditions: 6 h pre-treatment, 500 nM recombinant mouse CCL2; 5 µM; phalloidin staining
Experimental: Next, cells were washed with PBS and recombinant mouse CCL2 was added to a final concentration of 500 nM. Then, cells were incubated for varying times (indicated in Figure 2G), after which they were immediately placed on ice and washed 3 times with cold PBS. Actin polymerization was then visualized following staining with phalloidin Alexa Fluor 633, according to the manufacturer's instructions.

NLRP3 inflammasome = assay: Inflammasome activation immunoblot in BMDMs; type: cell-based, mouse; conditions: LPS 50 ng/mL, nigericin 5 µM
Experimental: Immunoblotting was performed as previously described with the following modifications. Briefly, cell lysates were obtained in SDS lysis buffer consisting of 2% SDS, 50 mM Tris-HCl (pH 6.8), 100 mM DTT, 5% Ficoll 400, 0.0001% bromophenol blue and a cocktail of protease inhibitors. Lysates were sonicated on ice before heating at 97 °C for 7 min to completely denature the protein. Protein concentration was determined using IR spectroscopy (which is insensitive to high SDS and DTT concentrations) with a Millipore DirectDetect spectrometer. Lysates were equally loaded at 10-15 µg per lane on BioRad TGX Criterion gels (4-15%) and resolved at 300 V in Tris-Glycine running buffer. Proteins were transferred on nitrocellulose membranes using the BioRad TransBlot turbo according to the manufacturer's instructions. Membranes were blocked in fish serum (Aqua Block) or 5% nonfat dry milk in TBS-T (0.05% Tween 20) and probed overnight at 4 °C with primary antibodies as indicated in Supplementary Table S1. The membranes were washed in TBS-T and incubated with secondary antibodies for 1 h at room temperature. After washing, semi-quantitative visualization of the proteins of interest was enabled using an enhanced chemiluminescence reagent as previously described and the Azure C400 western blot imaging system.
BMDMs or J774 cells were plated in 48-well plates at 2 x 10^5 per well. Next day, the medium was changed to Opti-MEM (100 μL per well) without serum and the cells were allowed to equilibrate for 3 h. Next, the cells were pretreated with the indicated concentrations of nanoparticles or controls for 3 h followed by the addition of LPS to some wells to the final LPS concentration of 50 ng/mL. LPS priming continued for another 2 h, following which DMSO (vehicle), Nigericin (5 μM) or adenosine triphosphate (ATP) (1 mM) were added to some wells. Cells were incubated for an additional 30 min and cell culture supernatants were collected on ice. Cells were washed with cold PBS once and lysed/processed as described in immunoblotting section. […]

## CCTV
RAW cells; 5 µM cytochalasin D, DMSO vehicle control
  uptake in presence of cytochalasin D: inhibited
RAW cells; RAW cells, 4 °C, 30 min, vs vehicle nanoparticles
  cell-surface binding at 4oC: rapidly bound to the cell surface
RAW cells; RAW cells, room temperature, LAMP1 co-staining
  uptake at room temperature: mediated by endocytosis
BMDMs
  actin polymerization: significantly inhibited actin polymerization
NLRP3 inflammasome
  IL-1β and its mature form in supernatants (immunoblot): dose-dependently inhibited the production of IL-1β and its mature form
  NLRP3 protein: markedly decreased, but only in nigericin-stimulated, CCTV-treated cells
  cleaved caspase 1 levels: reduced
